Experimental data taken from the NIST ThermoML archive (doi:10.1021/je100145f).
Where “and” joins values, the source holds several entries; their conditions need not be identical. Equal entries are not always repeated.

How the values were obtained:
[1] = 101 kPa, Liquid, Vibrating tube method
[2] = molar heat capacity at constant pressure; details: 101 kPa, Liquid, Small sample (50 mg) DSC
[3] = xn = mol fraction of the nth substance listed; details: 101 kPa, Liquid, Vibrating tube method, x2 = 0
[4] = molar heat capacity at constant pressure; xn = mol fraction of the nth substance listed; details: 101 kPa, Liquid, Small sample (50 mg) DSC, x2 = 0

N#Cc1ccccc1 [benzonitrile]
Details	mass density, [1] [kg/m3]	molar heat capacity at constant pressure, [2]
283.15 K	1013.99	163.43 J/K/mol
285.15 K	1012.21	163.9 J/K/mol
288.15 K	1009.55	164.61 J/K/mol and 164.63 J/K/mol
293.15 K	1005.12	165.82 J/K/mol
298.15 K	1000.69	167.06 J/K/mol
303.15 K	996.26	168.32 J/K/mol
308.15 K	991.83	169.59 J/K/mol
313.15 K	987.4	170.87 J/K/mol
318.15 K	982.96	172.15 J/K/mol

CCCCCCCCC [nonane]
Details	mass density, [1] [kg/m3]	molar heat capacity at constant pressure, [2] [J/K/mol]
285.15 K	724.54	278.38
288.15 K	722.22	279.6
293.15 K	718.35	281.72
298.15 K	714.46	283.86
303.15 K	710.55	286.11
308.15 K	706.63	288.4
313.15 K	702.7	290.76

CCCCCCCCC [nonane] + N#Cc1ccccc1
Details	mass density, [3] [kg/m3]	molar heat capacity at constant pressure, [4] [J/K/mol]
285.15 K	724.54	278.38
288.15 K	722.22	279.6
293.15 K	718.35	281.72
298.15 K	714.46	283.86
303.15 K	710.55	286.11
308.15 K	706.63	288.4
313.15 K	702.7	290.76

CCCCCCCC [octane]
Details	mass density, [1] [kg/m3]	molar heat capacity at constant pressure, [2] [J/K/mol]
283.15 K	710.76	248.2
288.15 K	706.76	250.1
293.15 K	702.74	252.06
298.15 K	698.71	254.08
303.15 K	694.66	256.16
308.15 K	690.58	258.28
313.15 K	686.49	260.45
318.15 K	682.37	262.66

CCCCCCCC [octane] + N#Cc1ccccc1
Details	mass density, [3] [kg/m3]	molar heat capacity at constant pressure, [4] [J/K/mol]
283.15 K	710.76	248.2
288.15 K	706.76	250.1
293.15 K	702.74	252.06
298.15 K	698.71	254.08
303.15 K	694.66	256.16
308.15 K	690.58	258.28
313.15 K	686.49	260.45
318.15 K	682.37	262.66
